Results published in patent US7829711B2, “Crystalline materials of 1-(4-benzoyl-piperazin-1-yl)-2-[4-methoxy-7-(3-methyl-[1,2,4]triazol-1-yl)-1H-pyrrolo[2,3-C]pyridine-3-yl]-ethane-1,2-dione” (Bristol-Myers Squibb Company, priority 2004, dated 2010).
≈ marks a conversion by molar mass, not a printed value.

Key:
Assay type in all cases: physicochemical
[1] = Hygroscopicity of Form P-1
[2] = Solvent mediated polymorphic transformation (suspension of P-1 crystals in solvents); conditions: room temperature or elevated temperature
[3] = Aqueous solubility of Form P-1; conditions: aqueous medium
pKa of Form P-1 = assay: pKa of Form P-1

## COc1cnc(-n2cnc(C)n2)c2[nH]cc(C(=O)C(=O)N3CCN(C(=O)c4ccccc4)CC3)c12 [Form P-1, 1-(4-benzoyl-piperazin-1-yl)-2-[4-methoxy-7-(3-methyl-[1,2,4]triazol-1-yl)-1H-pyrrolo[2,3-c]pyridin-3-yl]-ethane-1,2-dione]
[1]; at 90% RH
  Hygroscopicity: maximum water uptake: RH and 3.2% maximum water uptake at 90% RH)
[1]; result in words
  Hygroscopicity: Low hygroscopicity
[1]; under 30-60% RH
  Hygroscopicity: weight gain: 1%
[2]
  Phase conversion on suspension in various solvents: did not show any phase conversion
[3]; 25 °C, pH 5.7, aqueous buffer
  solubility: 2.7 µg/mL (≈ 5.7 µM)
[3]; aqueous buffer, pH 8.6, 25° C.
  solubility: 14 µg/mL (≈ 29.6 µM)
[3]; simulated gastric fluid, pH 1.4, 25° C.
  solubility: 12 µg/mL (≈ 25.3 µM)
pKa of Form P-1
  pKa: 8.4
